{
  "source": "patent US20250360215A1",
  "about": "“PHARMACEUTICAL COMBINATIONS AND METHODS FOR PREVENTING OR TREATING NEURODEGENERATIVE DISEASES” (National Health Research Institutes, priority 2022, published 2025)",
  "key": {"[1]": {"test_system": "3T3-L1 cells", "test": "Lipid droplet accumulation in 3T3-L1 adipocytes (3D imaging, HCS LipidTOX Red neutral lipid stain)", "type": "cell-based, mouse", "details": "1 μM peptide, 24 hours", "description": "(§1) FIGS. 3A to 3E show the increased lipid deposition induced by Aβ42.\nScale bar: 20 μm. […] FIGS. 6H and 6I show the HDL/T-Chol (FIG. 6H) and glucose (FIG. 6I) levels in plasma of APP/PS1 mice with or without thyroxine and pioglitazone. ** p<0.01. […] Tubulin, GAPDH (glyceraldehyde-3-phosphate dehydrogenase), and ponceau S: internal controls, respectively.\nThe 3T3-L1 pre-adipocytes ([…], ATCC CL-173) were cultured in Dulbecco's modified Eagle medium (DMEM) (Invitrogen, USA). Cells were grown at 37° C. in a 5% CO2 humid atmosphere. The differentiation of 3T3-L1 cells into adipocyte-like cells was performed as follows. A confluence of 70% of 3T3-L1 cells was induced with MDI induction medium (containing 500 μM 3-isobutyl-1-methylxanthine (IBMX), 1 μg/mL insulin, and 1 μM dexamethasone) for 3 days, followed by changing the medium to differentiation medium (10% fetal bovine serum (FBS) in DMEM). The differentiation medium was refreshed every two days. Full differentiation was achieved by day 8.\nTo exclude the possibility that the visceral adiposity was a secondary event caused by factors released from other tissues/organs, 3T3-L1 adipocytes were incubated with Aβ40 or Aβ42 to determine whether and which Aβ peptides to be potent in causing lipid accumulation in adipocytes."}, "[2]": {"test_system": "wild-type mice", "test": "Aβ42 intraperitoneal injection into wild-type mice (lipid deposition)", "type": "in vivo, mouse", "details": "WT mice, Aβ42 30 μg intraperitoneally three times at an interval of 3 days; 7 days after last injection", "description": "as §1\nTo assess whether the Aβ peptides were involved in lipid deposition in adipose tissues, Aβ42 (30 μg) was injected intraperitoneally into WT mice three times at an interval of 3 days."}, "[3]": {"test_system": "3T3-L1 cells", "test": "ApoE gene expression and LXR signaling protein levels in 3T3-L1 cells treated with Aβ peptides", "type": "cell-based, mouse", "description": "FIGS. 4E and 4H show the result of Western blot of LXR signaling proteins in gWAT (FIG. 4E) or BAT (FIG. 4H) of wild-type (WT) mice and APP/PS1 (AD) mice (n=2). […] ABCA1: ATP binding cassette subfamily A member 1. PPAγ: peroxisome proliferator-activated receptor gamma. Actin, GAPDH (glyceraldehyde-3-phosphate dehydrogenase) and tubulin: internal controls, respectively.\nThe 3T3-L1 pre-adipocytes ([…], ATCC CL-173) were cultured in Dulbecco's modified Eagle medium (DMEM) (Invitrogen, USA). Cells were grown at 37° C. in a 5% CO2 humid atmosphere. The differentiation of 3T3-L1 cells into adipocyte-like cells was performed as follows. […]\nTotal RNAs from brain tissues or culture cells were extracted using the illustra RNAspin Mini RNA Isolation Kit (GE Healthcare Life Sciences) for reverse transcription with the High-Capacity cDNA Reverse Transcription Kits (ABI Applied Biosystems, USA) according to the manufacturer's instructions. The quantitative real-time reverse transcription-PCR analysis was performed using the Fast SYBR Green Master Mix (ABI Applied Biosystems, USA). Results were determined using respective standard curves calculations. […]"}, "[4]": {"test_system": "Aβ42-treated 3T3-L1 cells", "test": "UCP1 and PPARγ2 levels in MDI-induced, Aβ42-treated 3T3-L1 cells (screening of combination drugs)", "details": "MDI-induced differentiated 3T3-L1 adipocytes treated with Aβ42 (FIG. 5)"}, "[5]": {"test_system": "dementia in human population", "test": "Population-based retrospective matched cohort analysis of dementia risk (Taiwan NHIRD database)", "type": "in vivo", "description": "To assess the potential for applying the combined drugs identified in Example 5 for therapeutic application in patients with dementia, a long-term follow-up retrospective analysis of human efficacy predictions was conducted by using National Health Research Institutes Database (NHRID) of Taiwan. Specifically, a […] matched cohort study was conducted to assess the effectiveness of the combined use of thyroid hormones and thiazolidinediones (TZDs) in reducing the risk of dementia, based on a dataset tracked 10,535 subjects with these two drugs for 10 years."}},
  "data": [
    {"compound": "Aβ40: amyloid β peptide Aβ40, comparison peptide", "values": [
      {"measurement": "lipid droplet accumulation in adipocytes", "setting": "[1]", "result": "not"}
    ]},
    {"compound": "Aβ42: amyloid β peptide Aβ42, used as inducer of lipid deposition", "values": [
      {"measurement": "lipid droplet accumulation in adipocytes", "setting": "[1]", "result": "evidently stimulated"},
      {"measurement": "body weight and gWAT mass", "setting": "[2]", "result": "rapidly increased"},
      {"measurement": "protein levels of LXRα, PPARγ, ABCA1 and caveolin-1", "setting": "[3]; Western blot", "result": "markedly decreased"},
      {"measurement": "apoE gene expression", "setting": "[3]; qRT-PCR", "result": "markedly upregulated"},
      {"measurement": "PPARγ2 level", "setting": "[4]", "result": "increased"},
      {"measurement": "UCP1 level", "setting": "[4]", "result": "decreased"}
    ]},
    {"compound": "N[C@@H](Cc1cc(I)c(Oc2ccc(O)c(I)c2)c(I)c1)C(=O)O", "note": "[T3 only, triiodothyronine]", "values": [
      {"measurement": "Incidence rate of dementia (per 1,000-person-year)", "setting": "[5]; Group 3: TZD + T3 vs T3 only, matched cohort", "result": "10.17 per 1,000-person-year"},
      {"measurement": "reduction of the risk of getting dementia", "setting": "[5]; retrospective analysis, 10 years follow-up", "result": 21.7, "unit": "%"}
    ]}
  ]
}
